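Compound exposure: 48 hours, 5 concentrations, 96-well plates. GI50: concentration for 50% inhibition of growth. TGI denotes the concentration required for complete inhibition of growth.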 Where only a bound is given, the exact number is not on record here.

Test systems include NCI-H522 lung; SF-268 CNS; SF-539 CNS; OVCAR-8 ovarian; UO-31 renal; HOP-62 NSCLC; 786-0 renal; SNB-19 CNS; DU-145 prostate; K-562 leukemia.
Experiment in all cases: NCI-60 cell line screen, 48 h

`Clc1ccc(CN2CCCN(Cc3ccc(Cl)cc3)C2c2cc3ccccc3c3ccccc23)cc1`: the TGI in the experiment on NCI-H522 lung was 51 µM; in the experiment on SF-268 CNS, above 100 µM; in the experiment with SF-539 CNS, above 100 µM; with OVCAR-8 ovarian, above 100 µM; with UO-31 renal, above 100 µM; in the experiment on HOP-62 NSCLC, above 100 µM. For the same molecule, the TGI in the experiment on 786-0 renal, in the experiment with SNB-19 CNS and in the experiment with DU-145 prostate was above 100 µM in each case.

As to `COc1cc(/C=C2\SC(N3CCCCC3)=NC2=O)ccc1OCCCCCCOc1ccc(/C=C2\SC(N3CCCCC3)=NC2=O)cc1OC`, the GI50 was 3.18 µM with NCI-H522 lung; 4.2 µM in the experiment on SF-268 CNS; 6.95 µM in the experiment with SF-539 CNS; 4.95 µM in the experiment with OVCAR-8 ovarian; 13.2 µM with UO-31 renal; 4.05 µM in the experiment with HOP-62 NSCLC. Moreover, the GI50 is 7.71 µM in the experiment with 786-0 renal, 9.58 µM in the experiment on SNB-19 CNS and 5.26 µM in the experiment on DU-145 prostate. Also, the TGI came to 22 µM in the experiment with NCI-H522 lung; 17.6 µM in the experiment on SF-268 CNS; 24.2 µM with SF-539 CNS; 31.1 µM with OVCAR-8 ovarian; 39.3 µM with UO-31 renal; 16.3 µM in the experiment on HOP-62 NSCLC. For the same molecule, the figures for the TGI in the experiment on 786-0 renal, in the experiment with SNB-19 CNS and in the experiment on DU-145 prostate were 27.8 µM, 39.7 µM and 17.6 µM, respectively.

With `CN(C)c1ccc(C(O)C2=CC(=O)c3ccccc3C2=O)cc1` (stereo not given), the GI50 with NCI-H522 lung was 2.82 µM; with SF-268 CNS it was above 100 µM; in the experiment with SF-539 CNS, 2.6 µM; in the experiment with OVCAR-8 ovarian it was 11.6 µM; in the experiment on UO-31 renal, 6.46 µM; in the experiment on HOP-62 NSCLC, 23.1 µM. Also, the GI50 is 14.4 µM with 786-0 renal and 2.23 µM in the experiment on DU-145 prostate. Besides, the TGI with NCI-H522 lung was 9.2 µM; in the experiment with SF-268 CNS it was above 100 µM; in the experiment on SF-539 CNS, 6.08 µM; with OVCAR-8 ovarian, 32.8 µM; in the experiment on UO-31 renal, 19.3 µM; with HOP-62 NSCLC it was 64.7 µM. For the same molecule, the TGI in the experiment with 786-0 renal was found to be 34.6 µM; with DU-145 prostate, 6.27 µM.

For `CCCCCC[C@H]1C(=O)O[C@H](C)[C@H](NC(=O)c2cccc(NC=O)c2OC)C(=O)O[C@@H](C)[C@@H]1OC(=O)CCC` (tested in a mixture with another compound), the GI50 is 4.99 µM with K-562 leukemia; 13 µM with NCI-H522 lung; 13.7 µM with SF-268 CNS; 15.5 µM in the experiment with SF-539 CNS; 12.1 µM in the experiment on OVCAR-8 ovarian; 13.2 µM in the experiment with UO-31 renal. The results for the GI50 in the experiment on HOP-62 NSCLC, in the experiment on 786-0 renal and with DU-145 prostate were 16.9 µM, 13.1 µM and 11.7 µM, respectively. Also, the TGI in the experiment on K-562 leukemia stood at 33.9 µM; in the experiment with NCI-H522 lung, 34.4 µM; with SF-268 CNS, 36.6 µM; in the experiment on SF-539 CNS, 33.3 µM; in the experiment with OVCAR-8 ovarian it was 33.4 µM; in the experiment on UO-31 renal, 29.3 µM. The TGI in the experiment on HOP-62 NSCLC turned out to be 40.1 µM; in the experiment with 786-0 renal, 27.1 µM; in the experiment on DU-145 prostate, 30.1 µM.

On to `COc1cc(N(C)C)c(OC)cc1C=C1C=CC=C1`, for which the TGI in the experiment with K-562 leukemia, in the experiment on SF-268 CNS, in the experiment on SF-539 CNS, with OVCAR-8 ovarian, in the experiment on UO-31 renal and with HOP-62 NSCLC was above 100 µM in each case. Besides, the TGI with 786-0 renal, with SNB-19 CNS and in the experiment with DU-145 prostate was above 100 µM each time.

For `CCc1ccc2c(c1)N(CCO)C1=C(C(=O)OC1)C2c1cc(OC)c(OC)c(OC)c1` (stereo not given), the GI50 with K-562 leukemia is 0.176 µM; in the experiment with NCI-H522 lung it was 0.0837 µM; in the experiment on SF-268 CNS, 0.3 µM; in the experiment on OVCAR-8 ovarian, 0.184 µM; in the experiment with UO-31 renal, 0.457 µM; in the experiment on HOP-62 NSCLC, 0.207 µM. Besides, the GI50 in the experiment on 786-0 renal was 0.245 µM; in the experiment with SNB-19 CNS, 0.263 µM; in the experiment on DU-145 prostate, 0.174 µM. Further, the TGI with K-562 leukemia is above 30.4 µM; in the experiment on NCI-H522 lung, 0.26 µM; with SF-268 CNS, above 19.8 µM; with OVCAR-8 ovarian, 1.22 µM; with UO-31 renal, above 50 µM; in the experiment with HOP-62 NSCLC, above 50 µM. The TGI in the experiment on 786-0 renal was above 14.5 µM; in the experiment on SNB-19 CNS it was above 50 µM; in the experiment with DU-145 prostate, 0.856 µM.

Turning to `COc1ccc(-c2c(N)noc2-c2cc(OC)c3c(c2)OCCO3)cc1`, the GI50 in the experiment with K-562 leukemia was below 0.01 µM; in the experiment with SF-268 CNS it was 0.0481 µM; in the experiment with SF-539 CNS, 0.0121 µM; in the experiment with OVCAR-8 ovarian, 0.0212 µM; with UO-31 renal, below 0.024 µM; in the experiment with HOP-62 NSCLC, below 0.0123 µM. Moreover, the GI50 with 786-0 renal was below 0.012 µM; in the experiment on SNB-19 CNS, 0.0277 µM; in the experiment with DU-145 prostate it was 0.0202 µM. The TGI is above 100 µM in the experiment on K-562 leukemia; above 100 µM with SF-268 CNS; 1.28 µM with SF-539 CNS; above 33.2 µM with OVCAR-8 ovarian; 56.9 µM in the experiment with UO-31 renal; above 54.8 µM with HOP-62 NSCLC. Also, the TGI in the experiment with SNB-19 CNS is above 100 µM; in the experiment on DU-145 prostate it was 0.193 µM.

For `COc1ccc(C2NC(=S)NC3=C2CCOc2c3ccc3ccccc23)cc1` (stereo not given), the GI50 was 32.4 µM with K-562 leukemia; 46.6 µM with NCI-H522 lung; 6.73 µM in the experiment with SF-268 CNS; 32.6 µM in the experiment with OVCAR-8 ovarian; 98.3 µM with UO-31 renal; above 100 µM with HOP-62 NSCLC. Also, the GI50 in the experiment with 786-0 renal, with SNB-19 CNS and with DU-145 prostate was above 100 µM throughout. In addition, the TGI in the experiment on K-562 leukemia, with NCI-H522 lung, in the experiment with SF-268 CNS, in the experiment on OVCAR-8 ovarian, with UO-31 renal and in the experiment with HOP-62 NSCLC was above 100 µM in each case. The TGI with 786-0 renal, in the experiment with SNB-19 CNS and in the experiment on DU-145 prostate was above 100 µM throughout.

For the molecule `COc1cc2c3c(n(CCCNCCCNCCCN)c(=O)c2cc1OC)-c1cc2c(cc1C3=O)OCO2`, the GI50 in the experiment with NCI-H522 lung was above 100 µM; with SF-268 CNS, above 100 µM; in the experiment on SF-539 CNS it was above 100 µM; with OVCAR-8 ovarian, above 100 µM; with UO-31 renal, above 100 µM; with 786-0 renal, 69.5 µM. The GI50 in the experiment on SNB-19 CNS and with DU-145 prostate was above 100 µM each time. The TGI in the experiment with NCI-H522 lung, with SF-268 CNS, in the experiment on SF-539 CNS, in the experiment with OVCAR-8 ovarian, in the experiment on UO-31 renal and in the experiment on 786-0 renal was above 100 µM each time. The TGI with SNB-19 CNS and with DU-145 prostate was above 100 µM throughout.

With `Cc1cc(NN=C(c2ccc(O)cc2)c2ccc(O)cc2)c([N+](=O)[O-])cc1[N+](=O)[O-]`, the GI50 in the experiment on K-562 leukemia was 92.7 µM; in the experiment with NCI-H522 lung, 1.08 µM; with SF-268 CNS, 5.34 µM; with OVCAR-8 ovarian, 4.08 µM; in the experiment on UO-31 renal, 4.02 µM; in the experiment with HOP-62 NSCLC, 4.11 µM. For the same molecule, the GI50 in the experiment with 786-0 renal was 5.39 µM; in the experiment on DU-145 prostate, 9.83 µM. The TGI was above 100 µM in the experiment on K-562 leukemia; 11.4 µM in the experiment with NCI-H522 lung; 57.3 µM in the experiment with SF-268 CNS; above 100 µM with OVCAR-8 ovarian; 23.7 µM with UO-31 renal; 18.2 µM in the experiment on HOP-62 NSCLC. In addition, the values for the TGI with 786-0 renal, in the experiment on SNB-19 CNS and in the experiment with DU-145 prostate were 22.1 µM, 0.935 µM and 29.5 µM, respectively.

Turning to `COc1ccc(C)cc1NC(=S)C#N`, the TGI in the experiment on K-562 leukemia, in the experiment on SF-268 CNS, with SF-539 CNS, in the experiment with OVCAR-8 ovarian, in the experiment on HOP-62 NSCLC and in the experiment with 786-0 renal was above 100 µM each time. For the same molecule, the TGI with SNB-19 CNS and in the experiment with DU-145 prostate was above 100 µM throughout.

With `COc1cc(-c2nn(-c3cccc(NC(=O)CCNc4ccc(N5CCOCC5)cc4)c3)cc2-c2ccncc2)ccc1Cl`, the GI50 in the experiment on NCI-H522 lung was 2.52 µM; in the experiment with SF-268 CNS, 4.42 µM; in the experiment on SF-539 CNS, 2.91 µM; in the experiment with OVCAR-8 ovarian, 2.92 µM; with UO-31 renal it was 2.7 µM; in the experiment with HOP-62 NSCLC, 3.48 µM. Also, the GI50 with 786-0 renal was 2.87 µM; in the experiment with SNB-19 CNS, 3.34 µM; in the experiment with DU-145 prostate, 4.04 µM. Further, the TGI is 9.82 µM in the experiment with NCI-H522 lung; above 100 µM with SF-268 CNS; 19.4 µM in the experiment with SF-539 CNS; 16.1 µM with OVCAR-8 ovarian; above 100 µM in the experiment with UO-31 renal; 22.3 µM in the experiment with HOP-62 NSCLC. Further, the TGI was 34.7 µM with 786-0 renal, above 100 µM with SNB-19 CNS and above 100 µM with DU-145 prostate.

`COc1cc(-c2nn(-c3cccc(NC(=O)CCN4CCN(c5ccccc5)CC4)c3)cc2-c2ccncc2)ccc1Cl`: the GI50 in the experiment with NCI-H522 lung was 2.43 µM; in the experiment with SF-268 CNS, 3.56 µM; with SF-539 CNS it was 2.53 µM; in the experiment with OVCAR-8 ovarian it was 4.5 µM; with UO-31 renal, 2.9 µM; with HOP-62 NSCLC it was 4.32 µM. For the same molecule, the GI50 in the experiment on 786-0 renal was 1.83 µM; with SNB-19 CNS, 4.38 µM; in the experiment with DU-145 prostate, 4.35 µM. The TGI is 9.69 µM in the experiment with NCI-H522 lung; above 100 µM in the experiment on SF-268 CNS; 18.4 µM in the experiment on SF-539 CNS; above 100 µM with OVCAR-8 ovarian; 48 µM in the experiment on UO-31 renal; above 100 µM in the experiment on HOP-62 NSCLC. The results for the TGI in the experiment on 786-0 renal, with SNB-19 CNS and with DU-145 prostate were 4.23 µM, above 100 µM and above 100 µM, respectively.
